How the values were obtained:
[1] = tested on: L6 myocytes; experiment: Glucose uptake in L6 muscle cells; format: cell-based; details: 0.01, 0.1 or 1 μM, basal and insulin conditions (FIGS. 2G and H)
Protocol: FIG. 2. (A) HGP of FAO cells treated with a 1 mM mixture of HICA: HIVA: HMVA at molar ratio 1:1:0.5 in basal condition. (B) HGP of FAO cells treated with a 1 mM mixture of HICA: HIVA: HMVA at molar ratio 1:1:0.5 in insulin condition. (C) HGP of FAO cells treated with 0.5 and 1 mM of HICA, leucine or combination of both in basal condition. (D) HGP of FAO cells treated with 0.5 and 1 mM of HICA, leucine or combination of both in insulin condition. (E) Glucose uptake of L6 muscle cells treated with a 0.1 or 1 μM mixture of HICA: HIVA: HMVA at molar ratio 1:1:0.5 in basal condition. (F) Glucose uptake of L6 cells treated with a 0.1 or 1 μM mixture of HICA: HIVA: HMVA at molar ratio 1:1:0.5 in insulin condition. (G) Glucose uptake of L6 cells treated with 0.01, 0.1 or 1 μM of HICA in basal condition. (H) Glucose uptake of L6 cells treated with 0.01, 0.1 or 1 μM of HICA in insulin condition.*p<0.05 versus control, **p<0.01 versus control, ***p<0.001 vs control, kp<0.05 versus Leu 0.5 mM, ^$ p<0.05 versus Leu 1 mM, ^$$ p<0.01 versus Leu 1 mM, ^$$$ p<0.001 versus Leu 1 mM. For panel C, D, G, H expressed in fold, basal and basal insulin are considered as a reference and represented by a dash line.
The Inventors elected to test the hypothesis that BCHA could exert direct effects in relevant cells. […]

[2] = tested on: FAO rat hepatocytes; experiment: Hepatic glucose production (HGP) in FAO cells; format: cell-based
Protocol: FAO rat hepatocytes were maintained in RPMI 1640 medium (Invitrogen) supplemented with 10% FBS. Cells were maintained in this medium 48 h before treatment. They were then serum-deprived overnight for 16 h with or without insulin (1 nM) and with HICA, HIVA or HMVA product at 10 nM, 100 nM, 1 μM, 10 μM, 100 μM and 1 mM. The cells were washed three times with PBS and incubated with phenol red- and glucose-free DMEM medium supplemented with 20 mM sodium L-lactate and 2 mM sodium pyruvate for 5 h with or without insulin and the indicated study treatment. Cell supernatant was collected, and glucose concentration was measured with the Amplex-Red Glucose assay kit accordingly to the manufacturer's instructions (Invitrogen). Cells were lysed with 50 mM NaOH, and protein concentration was determined using a BCA protein assay kit to normalize glucose production.

With `CC(C)CC(O)C(=O)O` (stereo not drawn) [HICA, alpha-hydroxyisocaproic acid] the “glucose uptake, individual BCHA” value [1] was “these effects appeared to be mostly explained by HICA”, the “effect on HGP in combination with leucine” value ([2]; 0.5 and 1 mM HICA combined with leucine (FIGS. 2C and D)) was “competed the effect of its BCAA leucine precursor” and the “basal HGP” value ([2]; 0.5 and 1 mM, basal condition (FIG. 2C)) was “dose-dependently inhibited”. The “insulin-suppressed HGP” value ([2]; 0.5 and 1 mM, insulin condition (FIG. 2D)) was “dose-dependently inhibited”.

From patent publication US20230165818A1, “COMPOSITION FOR REDUCING HEPATIC TRIGLYCERIDES AND/OR IMPROVING GLUCOSE METABOLISM” (Compagnie Gervais Danone, priority 2020, published 2023)
